# According to patent US6121284A, “2,3-bridged 1,4-dihydropyridines, and their use as medicaments” (Bayer Aktiengesellschaft, priority 1994, dated 2000):
# Tested on: C6-BU1-glioma cells
# Assay: 86Rubidium efflux from C6-BU1-glioma cells
# Format: cell-based
# Settings: Rattus norvegicus, C6-BU-1; 1 μM test substance applied; increase in 86Rb efflux above basal efflux caused by ionomycin set at 100%; read-out: residual efflux
# Protocol: ^86 Rubidium Efflux from C6-BU1-glioma cells
# The experiments were carried out in accordance with the method described by Tas et al. (Neurosci. Lett. 94, 279-284, (1988)), with slight changes. The increase in efflux above the basal efflux caused by ionomycin is calculated from the data and set at 100%. The stimulations in the presence of test substances are then based on this value.
row,SMILES,activity at 1 µM [%]
1,"CC1=C(C(=O)OC(C)C)C(c2cccc(Cl)c2Cl)C2=C(CCCC2=O)N1C (stereo not drawn) [Example 1, Isopropyl 4-(2,3-dichlorophenyl)-1,2-dimethyl-5-oxo-1,4,5,7,8-hexahydroquinoline-3-carboxylate]",38
2,"COC(=O)C1=C(C)N(C)C2=C(C(=O)OC2)C1c1ccc(Cl)cc1 (stereo not drawn) [Example 8, Methyl1,4,5,7-tetrahydro-4-(4-chlorophenyl)-1,2-dimethyl-7-oxo-furo-[3,4b]-pyridine-3-carboxylate]",53
3,"COC(=O)C1=C(C)N(C)C2=C(C(=O)OC2)C1c1cccc(F)c1F (stereo not drawn) [Example 11, Methyl 1,4,5,7-tetrahydro-4-(2,3-difluorophenyl)-1,2-dimethyl-5-oxo-furo-[3,4b]-pyridine-3-carboxylate]",73
